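Growth conditions: 96-well plates. Treatment: test compound, 48 hours, 5 concentrations. Analysis: linear interpolation between bracketing concentrations; unreached endpoints set to highest concentration. GI50: concentration for 50% inhibition of growth.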 Activity calls are given as the source filed them. Cut-off read from the data, not from the text of the source: active = GI50 up to about 1.1 µM and inactive = higher.
Experiments:
Assay in all cases: NCI tumour cell line growth inhibition, 48 h
HCC 2998 = test system: HCC 2998
SK-MEL-2 = test system: SK-MEL-2
SK-MEL-5 = test system: SK-MEL-5
TK-10 = test system: TK-10
RPMI-8226 = test system: RPMI-8226
ACHN = test system: ACHN
HL-60 = test system: HL-60
CCRF-CEM = test system: CCRF-CEM
HCT-116 = test system: HCT-116
MOLT-4 = test system: MOLT-4
NCI-H23 = test system: NCI-H23
HT-29 = test system: HT-29
NCI-H460 = test system: NCI-H460
OVCAR-5 = test system: OVCAR-5
BT-549 = test system: BT-549
EKVX = test system: EKVX
PC-3 = test system: PC-3
OVCAR-4 = test system: OVCAR-4
RXF 393 = test system: RXF 393
SF-268 = test system: SF-268
LOX IMVI = test system: LOX IMVI
U-251 = test system: U-251
SK-OV-3 = test system: SK-OV-3
NCI-H522 = test system: NCI-H522
CAKI-1 = test system: CAKI-1
HCT-15 = test system: HCT-15
Hs-578T = test system: Hs-578T
786-0 = test system: 786-0
NCI/ADR-RES = test system: NCI/ADR-RES
SNB-19 = test system: SNB-19
A549 = test system: A549
MDA-MB-231 = test system: MDA-MB-231
OVCAR-3 = test system: OVCAR-3
MDA-MB-435 = test system: MDA-MB-435
HOP-92 = test system: HOP-92
SK-MEL-28 = test system: SK-MEL-28
MCF7 = test system: MCF7
T47D = test system: T47D
NCI-H226 = test system: NCI-H226
SN12C = test system: SN12C
OVCAR-8 = test system: OVCAR-8
SF-295 = test system: SF-295
MDA-N = test system: MDA-N
SF-539 = test system: SF-539
UACC-257 = test system: UACC-257
COLO 205 = test system: COLO 205
SW-620 = test system: SW-620
KM12 = test system: KM12
IGROV-1 = test system: IGROV-1
M14 = test system: M14
HOP-62 = test system: HOP-62
DU-145 = test system: DU-145
UO-31 = test system: UO-31
A498 = test system: A498
Malme-3M = test system: Malme-3M
K562 = test system: K562

Cc1ccc(S(=O)(=O)N2CCSCCSCCN(S(=O)(=O)c3ccc(C)cc3)CCN(S(=O)(=O)c3ccc(C)cc3)CC2)cc1
GI50 (HCC 2998): > 100 µM (inactive) | GI50 (SK-MEL-2): > 100 µM (inactive) | GI50 (SK-MEL-5): > 100 µM (inactive) | GI50 (TK-10): > 100 µM (inactive) | GI50 (RPMI-8226): > 100 µM (inactive) | GI50 (ACHN): > 100 µM (inactive) | GI50 (HL-60): > 100 µM (inactive) | GI50 (CCRF-CEM): > 100 µM (inactive) | GI50 (HCT-116): > 100 µM (inactive) | GI50 (MOLT-4): > 100 µM (inactive) | GI50 (NCI-H23): > 100 µM (inactive) | GI50 (HT-29): > 100 µM (inactive) | GI50 (NCI-H460): > 100 µM (inactive) | GI50 (OVCAR-5): > 100 µM (inactive) | GI50 (BT-549): > 100 µM (inactive) | GI50 (EKVX): > 100 µM (inactive) | GI50 (PC-3): > 100 µM (inactive) | GI50 (OVCAR-4): > 100 µM (inactive) | GI50 (RXF 393): > 100 µM (inactive) | GI50 (SF-268): > 100 µM (inactive) | GI50 (LOX IMVI): > 100 µM (inactive) | GI50 (U-251): > 100 µM (inactive) | GI50 (SK-OV-3): > 100 µM (inactive) | GI50 (NCI-H522): > 100 µM (inactive) | GI50 (CAKI-1): > 100 µM (inactive) | GI50 (HCT-15): > 100 µM | GI50 (Hs-578T): > 100 µM (inactive) | GI50 (786-0): > 100 µM (inactive) | GI50 (NCI/ADR-RES): > 100 µM (inactive) | GI50 (SNB-19): > 100 µM (inactive) | GI50 (A549): > 100 µM (inactive) | GI50 (MDA-MB-231): > 100 µM (inactive) | GI50 (OVCAR-3): > 100 µM (inactive) | GI50 (MDA-MB-435): > 100 µM (inactive) | GI50 (HOP-92): > 100 µM (inactive) | GI50 (SK-MEL-28): > 100 µM (inactive) | GI50 (MCF7): > 100 µM (inactive) | GI50 (T47D): > 100 µM (inactive) | GI50 (NCI-H226): > 100 µM (inactive) | GI50 (SN12C): > 100 µM (inactive) | GI50 (OVCAR-8): > 100 µM (inactive) | GI50 (SF-295): > 100 µM (inactive) | GI50 (MDA-N): > 100 µM (inactive) | GI50 (SF-539): > 100 µM (inactive) | GI50 (UACC-257): > 100 µM (inactive) | GI50 (COLO 205): > 100 µM (inactive) | GI50 (SW-620): > 100 µM (inactive) | GI50 (KM12): > 100 µM (inactive) | GI50 (IGROV-1): > 100 µM (inactive) | GI50 (M14): > 100 µM (inactive) | GI50 (HOP-62): > 100 µM (inactive) | GI50 (DU-145): > 100 µM (inactive) | GI50 (UO-31): > 100 µM (inactive) | GI50 (A498): > 100 µM (inactive) | GI50 (Malme-3M): > 100 µM (inactive) | GI50 (K562): > 100 µM (inactive)
